Data taken from BindingDB's records for doi:10.1016/j.bmc.2013.10.018 (Baylor College of Medicine, 2014).
pIC50: −log10 of the molar value.

Legend:
[1] = biological target: T1, Signal transducer and activator of transcription 3 (Homo sapiens, UniProt P40763); experiment: Inhibition of Stat3 phosphorylation in human OVCAR3 cells by Western blotting analysis in hypoxia condition
[2] = biological target: T2, Hypoxia-inducible factor 1-alpha (Homo sapiens, UniProt Q16665); experiment: Inhibition of HIF-1 alpha in human OVCAR3 cells by Western blotting analysis in hypoxia condition
[3] = biological target: T2, Hypoxia-inducible factor 1-alpha; experiment: Inhibition of HIF-1 alpha in human MDA-MB-231 cells by Western blotting analysis in hypoxia condition
[4] = biological target: T1, Signal transducer and activator of transcription 3; experiment: Inhibition of Stat3 phosphorylation in human MDA-MB-231 cells by Western blotting analysis in hypoxia condition
[5] = biological target: T2, Hypoxia-inducible factor 1-alpha; experiment: Inhibition of HIF-1 alpha in human MDA-MB-468 cells by Western blotting analysis in hypoxia condition
[6] = biological target: T1, Signal transducer and activator of transcription 3; experiment: Inhibition of Stat3 phosphorylation in human PANC1 cells by Western blotting analysis in hypoxia condition
[7] = biological target: T1, Signal transducer and activator of transcription 3; experiment: Inhibition of Stat3 phosphorylation in human MDA-MB-468 cells by Western blotting analysis in normoxia condition
[8] = biological target: T1, Signal transducer and activator of transcription 3; experiment: Inhibition of Stat3 phosphorylation in human OVCAR3 cells by Western blotting analysis in normoxia condition
[9] = biological target: T2, Hypoxia-inducible factor 1-alpha; experiment: Inhibition of HIF-1 alpha in human PANC1 cells by Western blotting analysis in hypoxia condition
[10] = biological target: T1, Signal transducer and activator of transcription 3; experiment: Inhibition of Stat3 phosphorylation in human MDA-MB-468 cells by Western blotting analysis in hypoxia condition
[11] = biological target: T1, Signal transducer and activator of transcription 3; experiment: Inhibition of Stat3 phosphorylation in human PANC1 cells by Western blotting analysis in normoxia condition
[12] = biological target: T1, Signal transducer and activator of transcription 3; experiment: Inhibition of Stat3 phosphorylation in human MDA-MB-231 cells by Western blotting analysis in normoxia condition

T1 sequence (P40763 whole entry): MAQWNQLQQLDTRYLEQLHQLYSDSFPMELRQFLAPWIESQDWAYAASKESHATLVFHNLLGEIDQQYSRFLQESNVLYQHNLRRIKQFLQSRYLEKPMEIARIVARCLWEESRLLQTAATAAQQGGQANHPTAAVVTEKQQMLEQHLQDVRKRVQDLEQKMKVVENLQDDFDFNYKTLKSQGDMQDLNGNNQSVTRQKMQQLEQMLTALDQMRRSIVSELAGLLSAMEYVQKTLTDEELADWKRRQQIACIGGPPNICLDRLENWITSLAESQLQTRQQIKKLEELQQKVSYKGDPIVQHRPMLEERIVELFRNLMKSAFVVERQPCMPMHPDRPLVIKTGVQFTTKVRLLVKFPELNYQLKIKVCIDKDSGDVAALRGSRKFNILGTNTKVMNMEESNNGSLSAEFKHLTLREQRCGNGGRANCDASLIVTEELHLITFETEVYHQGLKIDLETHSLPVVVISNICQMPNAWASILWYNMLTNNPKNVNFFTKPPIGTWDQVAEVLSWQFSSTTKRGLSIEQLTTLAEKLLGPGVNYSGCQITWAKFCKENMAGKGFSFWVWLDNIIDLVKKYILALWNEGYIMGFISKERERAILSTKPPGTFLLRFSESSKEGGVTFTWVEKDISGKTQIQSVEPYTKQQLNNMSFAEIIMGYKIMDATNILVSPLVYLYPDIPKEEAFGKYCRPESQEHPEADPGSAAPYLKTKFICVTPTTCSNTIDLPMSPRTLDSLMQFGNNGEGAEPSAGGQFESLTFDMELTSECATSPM
T2 sequence (Q16665 whole entry): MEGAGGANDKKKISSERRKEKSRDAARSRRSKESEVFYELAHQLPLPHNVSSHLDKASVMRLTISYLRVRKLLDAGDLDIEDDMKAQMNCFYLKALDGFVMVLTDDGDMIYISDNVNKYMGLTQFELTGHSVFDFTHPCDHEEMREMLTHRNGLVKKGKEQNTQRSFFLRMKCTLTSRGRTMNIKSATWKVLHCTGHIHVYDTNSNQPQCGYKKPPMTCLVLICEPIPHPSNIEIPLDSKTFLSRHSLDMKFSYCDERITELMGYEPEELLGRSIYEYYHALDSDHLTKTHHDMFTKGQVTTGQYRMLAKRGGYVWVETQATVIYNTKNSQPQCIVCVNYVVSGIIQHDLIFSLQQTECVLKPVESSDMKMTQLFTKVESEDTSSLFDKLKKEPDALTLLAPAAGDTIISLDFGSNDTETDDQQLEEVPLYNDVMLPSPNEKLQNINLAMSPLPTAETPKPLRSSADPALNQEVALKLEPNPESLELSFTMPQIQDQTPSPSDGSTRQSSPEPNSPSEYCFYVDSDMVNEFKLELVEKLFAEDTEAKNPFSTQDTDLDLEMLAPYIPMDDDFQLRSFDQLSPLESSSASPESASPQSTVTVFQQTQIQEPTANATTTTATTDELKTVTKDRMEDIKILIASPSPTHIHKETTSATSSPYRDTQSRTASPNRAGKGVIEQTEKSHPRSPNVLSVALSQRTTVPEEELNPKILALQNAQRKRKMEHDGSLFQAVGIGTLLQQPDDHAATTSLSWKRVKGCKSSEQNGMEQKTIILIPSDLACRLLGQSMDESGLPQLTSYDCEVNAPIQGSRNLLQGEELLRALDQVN

pIC50 [1]: 5.35
pIC50 [2]: 5.52
pIC50 [3]: 5.52
pIC50 [4]: 5.35
pIC50 [5]: 5.52
pIC50 [6]: 5.35
pIC50 [7]: 5.35
pIC50 [8]: 5.35
pIC50 [9]: 5.52
pIC50 [10]: 5.35
pIC50 [11]: 5.35
pIC50 [12]: 5.35
Structure (SMILES): CN(C)CCCN1C(=O)c2ccc3c4ccc5c6c(ccc(c7ccc(c2c37)C1=O)c64)C(=O)N(CCCN(C)C)C5=O
